# Measurements taken from patent US10131606B2, “Tetrarylmethane ethers” (Rohm and Haas Company, priority 2014, dated 2018).
row,Structure (SMILES),melting point
1,"CCCCCOc1ccc(C(c2ccccc2)(c2ccccc2)c2ccc(OCCCCC)cc2)cc1 [BPentTPM, Bis(4-(pentyloxy)phenyl)diphenylmethane]",110 to 113 °C
2,"CCCCCCCCOc1ccc(C(c2ccccc2)(c2ccccc2)c2ccc(OCCCCCCCC)cc2)cc1 [BOctTPM, Bis(4-(octyloxy)phenyl)diphenylmethane]",84.5 to 86.5 °C
3,"CCCCCCCOc1ccc(C(c2ccccc2)(c2ccccc2)c2ccc(OCCCCCCC)cc2)cc1 [BHeptTPM, Bis(4-(heptyloxy)phenyl)diphenylmethane]",103 to 105 °C
4,CCCCCCOc1ccc(C(c2ccccc2)(c2ccccc2)c2ccc(OCCCCCC)cc2)cc1 [BHexTPM],120 to 122 °C
